In patent US9845322B2 (Hoffmann-La Roche Inc., priority 2016, dated 2017):
pIC50: −log10 of the molar value. Like-named read-outs stand apart in the source and are kept apart here.

What was measured:
[1] = system: HBV DNA production in HepG2.2.15 cells; test: HBV DNA assay (real-time qPCR/TaqMan of extracellular HBV DNA in cell supernatant); type: cell-based; conditions: Hepatitis B virus, 144 h, extracellular HBV DNA copy number, six days after initial administration, read-out: IC50 (Anti HBV DNA production activity)
Procedure: HepG2.2.15 cells (Acs et al. Proc Natl Acad Sci USA, 84, (1987), 4641-4), a constitutively HBV-expressing cell line were cultured in DMEM+Glutamax-I medium (Invitrogen, Carlsbad, Calif., USA), supplemented with 10% fetal bovine serum (Invitrogen) and G418 (Invitrogen) at a final concentration of 200 mg/L and maintained in 5% CO2 at 37° C.
The assay employs real-time qPCR (TaqMan) to directly measure extracellular HBV DNA copy number in the cell supernatant. HepG2.2.15 cells were plated in 96-well microtiter plates before treatment with complete medium (DMEM, Glutamax, 10% FBS, 1% Penicillin/Streptomycin, 250 μg/mL Genetycin, final DMSO concentration is 1%). Only the interior wells were utilized to reduce “edge effects” observed during cell culture, the exterior wells were filled with complete medium to help minimize sample evaporation. The HepG2.2.15 cells were treated 1 h later with various concentrations of a test compound in duplicate (top concentration used at 5 μM, 2 μM or 0.5 μM according to the HBsAg IC50 observed, with ⅓ successive dilutions (total of 10 dilutions). Six days following the initial administration of the test compound, the cell culture supernatant was collected; DNA extraction was performed by automated system (Magnapure) and then used in a real-time qPCR/TaqMan assay to determine HBV DNA copy numbers. Antiviral activity was calculated from the reduction in HBV DNA levels (IC50). The compounds of the present invention were tested for their capacity to inhibit HBV DNA as described herein.

[2] = system: HBsAg secretion in HepG2.2.15 cells; test: HBsAg assay (chemiluminescence immunoassay of secreted HBsAg in culture supernatant); type: cell-based, HBV; conditions: concentration at which HBsAg secretion was reduced by 50% compared to the no drug control, read-out: IC50 (HBsAg assay)
In short: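 IC50 taken from dose-response curves as the concentration halving secreted HBsAg relative to DMSO control. Measured by chemiluminescence immunoassay of culture supernatant from constitutively HBV-expressing HepG2.2.15 cells, seeded at 1.5×10^4/well in duplicate and exposed to three-fold serial compound dilutions at 1% final DMSO.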

[3] = Hepatitis B virus, HepG2.2.15, HepG2.2.15 cells

How did the pIC50 [1] turn out when CC1c2cnc(-c3ncccn3)nc2CCN1c1cc(OCCCCCC(N)=O)cc(F)n1 (single isomer, unassigned; (-)) [Example 165, (−)-6-[[2-fluoro-6-[5-methyl-2-pyrimidin-2-yl-7,8-dihydro-5H-pyrido[4,3-d]pyrimidin-6-yl]-4-pyridyl]oxy]hexanamide] was run?
Its pIC50 is greater than 9.00.

What about the pIC50 [2, 3] of the same molecule?
Its pIC50 is 7.89.

COc1cc(N2CCc3nc(-c4ncccn4)ncc3C2C)cc(Cl)c1F (single isomer, unassigned; (-)) [Example 43, (−)-6-(3-chloro-4-fluoro-5-methoxy-phenyl)-5-methyl-2-pyrimidin-2-yl-7,8-dihydro-5H-pyrido[4,3-d]pyrimidine] was tested. Which pIC50 [1] did it give?
Its pIC50 is 8.10.

And the pIC50 ([2]; HepG2.2.15 cells)?
The pIC50 was 7.74.

With CC1c2cnc(-c3ncccn3)nc2CCN1c1cc(F)cc(N2CCNC(=O)C2)n1 (stereo not drawn) [Example 214, 4-[4-fluoro-6-(5-methyl-2-pyrimidin-2-yl-7,8-dihydro-5H-pyrido[4,3-d]pyrimidin-6-yl)-2-pyridyl]piperazin-2-one] as the molecule, how does the pIC50 [1] read?
Its pIC50 is 8.14.

And the pIC50 [2, 3]?
The pIC50 was 7.66.

CC1c2cnc(-c3ncccn3)nc2CCN1c1cc(F)c(F)c(OCCCCCCC(N)=O)c1 (stereo not drawn) [Example 87, 7-[2,3-difluoro-5-(5-methyl-2-pyrimidin-2-yl-7,8-dihydro-5H-pyrido[4,3-d]pyrimidin-6-yl)phenoxy]heptanamide] was tested. Which pIC50 [1] did it give?
Its pIC50 is 8.00.

And the pIC50 [2, 3]?
Its pIC50 is 7.14.

CC1c2cnc(-c3ncccn3)nc2CCN1c1cc(F)c(F)c(OCCCCCCC(=O)O)c1 (stereo not drawn) [Example 86, 7-[2,3-difluoro-5-(5-methyl-2-pyrimidin-2-yl-7,8-dihydro-5H-pyrido[4,3-d]pyrimidin-6-yl)phenoxy]heptanoic acid] was tested. Which pIC50 [1] did it give?
Its pIC50 is 9.00.

And the pIC50 [2, 3]?
The pIC50 was 7.00.

Which results are given for CC1c2cnc(-c3ncccn3)nc2CCN1c1cc(OCC(F)F)cc(F)n1 (stereo not drawn) [Example 149, 6-[4-(2,2-difluoroethoxy)-6-fluoro-2-pyridyl]-5-methyl-2-pyrimidin-2-yl-7,8-dihydro-5H-pyrido[4,3-d]pyrimidine]?
pIC50 [1]: 9.00; pIC50 [2, 3]: 8.00

With CC1c2cnc(-c3ncccn3)nc2CCN1c1cc(N2CCNC(=O)C2)cc(F)n1 (stereo not drawn) [Example 215, 4-[2-fluoro-6-(5-methyl-2-pyrimidin-2-yl-7,8-dihydro-5H-pyrido[4,3-d]pyrimidin-6-yl)-4-pyridyl]piperazin-2-one] as the molecule, how does the pIC50 [1] read?
Its pIC50 is 9.09.

And the pIC50 [2, 3]?
Its pIC50 is 7.19.

COc1cc(F)cc(N2CCc3nc(-c4ncccn4)ncc3C2C)c1 (single isomer, unassigned; (-)) [Example 73, (−)-6-(3-fluoro-5-methoxy-phenyl)-5-methyl-2-pyrimidin-2-yl-7,8-dihydro-5H-pyrido[4,3-d]pyrimidine] was tested. Which pIC50 [1] did it give?
Its pIC50 is 8.30.

What about the pIC50 ([2]; HepG2.2.15 cells) of the same molecule?
Its pIC50 is 7.74.

How did the pIC50 [1] turn out when CC1c2cnc(-c3ncccn3)nc2CCN1c1cc(N(C)C)cc(F)n1 (single isomer, unassigned; (-)) [Example 207, (−)-2-fluoro-N,N-dimethyl-6-[5-methyl-2-pyrimidin-2-yl-7,8-dihydro-5H-pyrido[4,3-d]pyrimidin-6-yl]pyridin-4-amine] was run?
The pIC50 was 9.47.

What about the pIC50 ([2]; HepG2.2.15 cells) of the same molecule?
Its pIC50 is 8.70.

How did the pIC50 [1] turn out when CC1c2cnc(-c3ncccn3)nc2CCN1c1cc(F)c(F)c(OCCCCC(N)=O)c1 (stereo not drawn) [Example 64, 5-[2,3-difluoro-5-(5-methyl-2-pyrimidin-2-yl-7,8-dihydro-5H-pyrido[4,3-d]pyrimidin-6-yl)phenoxy]pentanamide] was run?
Its pIC50 is 8.40.

And the pIC50 [2, 3]?
Its pIC50 is 7.21.

CC1c2cnc(-c3ncccn3)nc2CCN1c1cc(N2CCCC2)cc(F)n1 (single isomer, unassigned; (-)) [Example 200, (−)-6-(6-fluoro-4-pyrrolidin-1-yl-2-pyridyl)-5-methyl-2-pyrimidin-2-yl-7,8-dihydro-5H-pyrido[4,3-d]pyrimidine] was tested. Which pIC50 [1] did it give?
Its pIC50 is greater than 9.00.

What about the pIC50 ([2]; HepG2.2.15 cells) of the same molecule?
The pIC50 was 8.70.

With CC1c2cnc(-c3ccccn3)nc2CCN1c1cc(OCC2CCOCC2)cc(F)n1 (stereo not drawn) [Example 190, 6-[6-fluoro-4-(tetrahydropyran-4-ylmethoxy)-2-pyridyl]-5-methyl-2-(2-pyridyl)-7,8-dihydro-5H-pyrido[4,3-d]pyrimidine] as the molecule, how does the pIC50 [2, 3] read?
The pIC50 was 7.62.

How did the pIC50 [2, 3] turn out when COc1cc(N2CCc3nc(-c4ncccn4)ncc3C2C)cc(F)c1I (stereo not drawn) [Example 111, 6-(3-fluoro-4-iodo-5-methoxy-phenyl)-5-methyl-2-pyrimidin-2-yl-7,8-dihydro-5H-pyrido[4,3-d]pyrimidine] was run?
Its pIC50 is 7.39.

How did the pIC50 [2, 3] turn out when CC1c2cnc(-c3ncccn3)nc2CCN1c1cc(F)cc(C(F)(F)F)c1 (stereo not drawn) [Example 81, 6-[3-fluoro-5-(trifluoromethyl)phenyl]-5-methyl-2-pyrimidin-2-yl-7,8-dihydro-5H-pyrido[4,3-d]pyrimidine] was run?
Its pIC50 is 6.88.

With CC1c2cnc(-c3ccccn3)nc2CCN1c1cc(OCCCCCCC(N)=O)cc(F)n1 (stereo not drawn) [Example 180, 7-[[2-fluoro-6-[5-methyl-2-(2-pyridyl)-7,8-dihydro-5H-pyrido[4,3-d]pyrimidin-6-yl]-4-pyridyl]oxy]heptanamide] as the molecule, how does the pIC50 [2, 3] read?
Its pIC50 is 7.57.

CC1c2cnc(-c3ncccn3)nc2CCN1c1cc(F)c(F)c(OCC(N)=O)c1 (stereo not drawn) [Example 66, 2-[2,3-difluoro-5-(5-methyl-2-pyrimidin-2-yl-7,8-dihydro-5H-pyrido[4,3-d]pyrimidin-6-yl)phenoxy]acetamide] was tested. Which pIC50 ([2]; HepG2.2.15 cells) did it give?
Its pIC50 is 6.77.

COc1cc(F)cc(N2CCc3nc(-c4ncccn4)ncc3C2C)n1 (stereo not drawn) [Example 142, 6-(4-fluoro-6-methoxy-2-pyridyl)-5-methyl-2-pyrimidin-2-yl-7,8-dihydro-5H-pyrido[4,3-d]pyrimidine] was tested. Which pIC50 [2, 3] did it give?
Its pIC50 is 7.40.

CC1c2cnc(-c3ncccn3)nc2CCN1c1cc(F)cc(OC(F)(F)F)c1 (stereo not drawn) [Example 133, 6-[3-fluoro-5-(trifluoromethoxy)phenyl]-5-methyl-2-pyrimidin-2-yl-7,8-dihydro-5H-pyrido[4,3-d]pyrimidine] was tested. Which pIC50 [2, 3] did it give?
Its pIC50 is 5.75.

CC1c2cnc(-c3ncccn3)nc2CCN1c1cc(OCC2CCOCC2)cc(F)n1 (stereo not drawn) [Example 151, 6-[6-fluoro-4-(tetrahydropyran-4-ylmethoxy)-2-pyridyl]-5-methyl-2-pyrimidin-2-yl-7,8-dihydro-5H-pyrido[4,3-d]pyrimidine] was tested. Which pIC50 [2, 3] did it give?
The pIC50 was 7.92.

How did the pIC50 [2, 3] turn out when CC1c2cnc(-c3ncccn3)nc2CCN1c1cc(F)c(F)c(OC(F)F)c1 (stereo not drawn) [Example 71, 6-[3-(difluoromethoxy)-4,5-difluoro-phenyl]-5-methyl-2-pyrimidin-2-yl-7,8-dihydro-5H-pyrido[4,3-d]pyrimidine] was run?
Its pIC50 is 7.17.

CC1c2cnc(-c3ncccn3)nc2CCN1c1cc(F)c(F)c(OCC2COC2)c1 (stereo not drawn) [Example 76, 6-[3,4-difluoro-5-(oxetan-3-ylmethoxy)phenyl]-5-methyl-2-pyrimidin-2-yl-7,8-dihydro-5H-pyrido[4,3-d]pyrimidine] was tested. Which pIC50 [2, 3] did it give?
The pIC50 was 7.55.

How did the pIC50 ([2]; HepG2.2.15 cells) turn out when CC1c2cnc(-c3ccccn3)nc2CCN1c1ccc([N+](=O)[O-])cc1 (single isomer, unassigned; (-)) [Example 3, (−)-5-methyl-6-(4-nitrophenyl)-2-(2-pyridyl)-7,8-dihydro-5H-pyrido[4,3-d]pyrimidine] was run?
Its pIC50 is 6.94.

How did the pIC50 ([2]; HepG2.2.15 cells) turn out when CCC1c2cnc(-c3ccccn3)nc2CCN1c1cc(F)c(F)c(OC)c1 (single isomer, unassigned; (-)) [Example 11, (−)-6-(3,4-difluoro-5-methoxy-phenyl)-5-ethyl-2-(2-pyridyl)-7,8-dihydro-5H-pyrido[4,3-d]pyrimidine] was run?
Its pIC50 is 7.07.

How did the pIC50 ([2]; HepG2.2.15 cells) turn out when CC1c2cnc(-c3ncccn3)nc2CCN1c1cc(N2CCCC2)cc(F)n1 (stereo not drawn) [Example 198, 6-(6-fluoro-4-pyrrolidin-1-yl-2-pyridyl)-5-methyl-2-pyrimidin-2-yl-7,8-dihydro-5H-pyrido[4,3-d]pyrimidine] was run?
Its pIC50 is 8.40.

CC1c2cnc(-c3ncccn3)nc2CCN1c1cc(OCC(N)=O)cc(F)n1 (stereo not drawn) [Example 174, 2-[[2-fluoro-6-(5-methyl-2-pyrimidin-2-yl-7,8-dihydro-5H-pyrido[4,3-d]pyrimidin-6-yl)-4-pyridyl]oxy]acetamide] was tested. Which pIC50 [2, 3] did it give?
Its pIC50 is 6.18.

With CC1c2cnc(-c3ccccn3)nc2CCN1c1cc(OCC(F)F)cc(F)n1 (stereo not drawn) [Example 192, 6-[4-(2,2-difluoroethoxy)-6-fluoro-2-pyridyl]-5-methyl-2-(2-pyridyl)-7,8-dihydro-5H-pyrido[4,3-d]pyrimidine] as the molecule, how does the pIC50 [2, 3] read?
Its pIC50 is 7.52.

CC1c2cnc(-c3ncccn3)nc2CCN1c1cc(F)c(F)c(OC2CCOC2)c1 (stereo not drawn) [Example 121, 6-(3,4-difluoro-5-tetrahydrofuran-3-yloxy-phenyl)-(5R/S)-methyl-2-pyrimidin-2-yl-7,8-dihydro-5H-pyrido[4,3-d]pyrimidine] was tested. Which pIC50 ([2]; HepG2.2.15 cells) did it give?
Its pIC50 is 7.38.

With CC(=O)N1CC(COc2cc(F)nc(N3CCc4nc(-c5ncccn5)ncc4C3C)c2)C1 (stereo not drawn) [Example 160, 1-[3-[[2-fluoro-6-(5-methyl-2-pyrimidin-2-yl-7,8-dihydro-5H-pyrido[4,3-d]pyrimidin-6-yl)-4-pyridyl]oxymethyl]azetidin-1-yl]ethanone] as the molecule, how does the pIC50 [2, 3] read?
Its pIC50 is 6.71.
